Measurements published in PMC4094919, “Screening and hit evaluation of a chemical library against blood-stage Plasmodium falciparum” (Malaria Journal, 2014).
Entries after “also recorded” stand apart in the source; their conditions may differ. Where two headings read alike, the source gives them in different places.

Tests used:
P. falciparum 3D7 strain = experiment: P. falciparum 3D7 growth inhibition, DAPI imaging (HTS screen); assay type: cell-based; details: Plasmodium falciparum
Protocol: The P. falciparum 3D7 strain was used for the primary screen.
For the screening of the chemical library, a validated high throughput screening (HTS) method was used as reported by Duffy and Avery. In brief, intra-erythrocyte P. falciparum 3D7 parasites incubated with the compounds for 72 hours were stained with 4′-6-diamidino-2-phenylindole (DAPI) and imaged using a high throughput confocal imaging system. To ascertain inhibition of parasite growth, images of fluorescent parasites were translated, using a mathematical algorithm, into a numerical output of classified spots (parasites) as determined by fluorescence size and intensity.
EC50 and CC50 values were calculated for compounds which presented an Emax plateau using GraphPad Prism.

[1] = system: P. falciparum NF54 strain; experiment: P. falciparum NF54 growth assay, 3H-hypoxanthine incorporation (hit validation); assay type: cell-based, Plasmodium falciparum; details: for EC50: Plasmodium falciparum
Protocol: Synthesized compounds were tested in an alternative assay, in which ^3H-hypoxanthine incorporation was measured in the chloroquine-sensitive strain NF54 (Values were measured in duplicate, 12 points/EC50).
Cultivation of Plasmodium falciparum: Plasmodium falciparum strain NF54 was obtained from the Research and Reference Reagent Resource Center (MR4) (Manassas, VA, USA). The two strains were maintained in vitro by a modification of the method of Trager and Jensen. Cultures were maintained in A positive (A^+) human erythrocytes suspended at 5% hematocrit in complete medium. […] Parasite growth and morphology were observed daily using thin smears at 100X (oil immersion) magnification following staining with Giemsa stain.
Plasmodium falciparum growth assay: The protocol assesses the compound efficacy against the growth of P. falciparum in vitro.
All cultures used in the study are albumax II adopted. […]
Following the incubation period, the plates were harvested with a FilterMate cell harvester (Perkin Elmer) onto unifilter-96 GF/B plates, washed with distilled water to remove excess radiochemical and plates were kept for drying 37°C overnight or 60°C for 1 hr. Fifty µL of Microscint scintillation cocktail (Microscint-High Efficiency LSC-Cocktail; Perkin Elmer) added in the unifilter-96 GF/B plates and kept for 15-20 min. The plates were counted in a Top Count NXT microplate scintillation and luminescence counter (Perkin Elmer). The mean values for [^3H]-hypoxanthine incorporation in parasitized control and non-parasitized control erythrocytes were calculated.
Assay data were analysed using Graph pad prism ver.5 software. A variable sigmoid dose response curve is plotted keeping log concentrations at X-axis and % inhibition at Y-axis.

[2] = Chemical stability on standing at room temperature; assay type: physicochemical

EC50 (P. falciparum 3D7 strain; P. falciparum 3D7 strain, DAPI imaging, HTS screen, library sample, read-out: EC50 (3D7)): 602 nM
EC50 (P. falciparum 3D7 strain; negative logarithm of the molar EC50, 3D7, read-out: pEC50 (3D7) (converted)): 631 nM
EC50 ([1]; NF54, heading bounds of Figure 8: not reconfirming / reconfirming / newly synthesized compounds, read-out: EC50 (bound in Figure 8)): > 1000 nM
EC50 ([1]; P. falciparum NF54 strain, 3H-hypoxanthine incorporation, newly synthesized sample, read-out: EC50 (NF54)): 4700 nM
EC50 ([1]; negative logarithm of the molar EC50, NF54, read-out: pEC50 (NF54) (converted)): 5010 nM
SMILES: Cc1c(CO)c2ccccc2n1Cc1ccccc1C#N [Compound 1, 2-((3-(hydroxymethyl)-2-methyl-1H-indol-1-yl)methyl)benzonitrile]
Comment (activity in words on retest) ([1]; hit validation, NF54 confirmatory assay): Weakly active/unstable
Chemical stability [2]: significantly degraded; also recorded: unstable
